The text below walks through data of patent US7355042B2, “Treatment of CNS disorders using CNS target modulators” (Hypnion, Inc., priority 2001, dated 2008).

Like-named read-outs stand apart in the source and are kept apart here.

By IC50 is commonly meant the point on the concentration scale where inhibition reaches its midpoint. Low readings indicate higher potency, high ones lower potency.

One data set deals with male Wistar rats. The experiment in a line: Sleep-wakefulness, locomotor activity and body temperature monitoring (SCORE-2000). Type of data set: in vivo, rat. The note with it: for total sleep time post-treatment: 10 mg/kg PO at CT-18, versus methylcellulose vehicle; for body temperature adverse effects / disproportional locomotor inhibition: rats.
Data set [1] addresses T1, H1 receptor from bovine cellular membranes (Bos taurus, UniProt P30546).
T1 construct: the H1 receptor was from bovine cellular membranes; from tissue
The experiment in a line: H1 binding assay, [3H]pyrilamine displacement. As to conditions: for IC50: Table 6, Series 11, unit inferred.

Data set [2] concerns the target T2, human recombinant M1 muscarinic receptor expressed in CHO cells (Homo sapiens, UniProt P11229).
T2 construct: expressed in transfected cells; host or cells: CHO cells
T2 sequence (P11229 1-460): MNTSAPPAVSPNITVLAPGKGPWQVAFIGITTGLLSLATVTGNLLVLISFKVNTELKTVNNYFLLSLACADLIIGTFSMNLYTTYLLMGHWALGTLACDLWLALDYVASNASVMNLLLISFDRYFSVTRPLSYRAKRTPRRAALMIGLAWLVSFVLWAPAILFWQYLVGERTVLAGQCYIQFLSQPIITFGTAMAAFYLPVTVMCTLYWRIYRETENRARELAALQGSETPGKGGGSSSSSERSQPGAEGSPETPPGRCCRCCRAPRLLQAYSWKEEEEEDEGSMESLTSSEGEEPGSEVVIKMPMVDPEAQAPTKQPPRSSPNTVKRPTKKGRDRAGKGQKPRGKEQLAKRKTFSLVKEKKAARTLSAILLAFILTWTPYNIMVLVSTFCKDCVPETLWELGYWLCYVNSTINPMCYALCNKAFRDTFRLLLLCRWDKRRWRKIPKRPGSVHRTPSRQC
The data set is described as follows: M1 binding assay (human recombinant), [3H]-scopolamine N-methyl chloride.

Data set [3] deals with T3, human recombinant M3 muscarinic receptor expressed in CHO cells (Homo sapiens, UniProt P20309).
T3 construct: expressed in transfected cells; host or cells: CHO cells
T3 sequence (P20309 whole entry): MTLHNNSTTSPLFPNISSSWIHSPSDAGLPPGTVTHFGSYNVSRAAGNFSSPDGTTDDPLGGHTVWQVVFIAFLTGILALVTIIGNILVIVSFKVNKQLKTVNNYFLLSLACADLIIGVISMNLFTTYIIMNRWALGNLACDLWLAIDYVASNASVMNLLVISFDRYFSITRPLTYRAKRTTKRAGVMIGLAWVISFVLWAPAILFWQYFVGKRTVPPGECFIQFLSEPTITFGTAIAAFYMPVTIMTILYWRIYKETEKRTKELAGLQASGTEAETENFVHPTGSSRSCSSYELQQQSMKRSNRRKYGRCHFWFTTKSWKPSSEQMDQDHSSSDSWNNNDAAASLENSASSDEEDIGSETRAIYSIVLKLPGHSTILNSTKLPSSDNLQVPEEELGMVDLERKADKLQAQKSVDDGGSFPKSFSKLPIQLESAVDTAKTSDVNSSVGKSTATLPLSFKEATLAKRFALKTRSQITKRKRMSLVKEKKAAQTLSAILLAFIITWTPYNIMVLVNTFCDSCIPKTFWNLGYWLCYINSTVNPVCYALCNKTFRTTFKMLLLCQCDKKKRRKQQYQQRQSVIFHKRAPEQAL
The experiment in a line: M3 binding assay (human recombinant).

The target of data set [4] is T4, human recombinant M2 muscarinic receptor expressed in CHO cells (Homo sapiens, UniProt P08172).
T4 construct: expressed in transfected cells; host or cells: CHO cells
T4 sequence (P08172 1-466): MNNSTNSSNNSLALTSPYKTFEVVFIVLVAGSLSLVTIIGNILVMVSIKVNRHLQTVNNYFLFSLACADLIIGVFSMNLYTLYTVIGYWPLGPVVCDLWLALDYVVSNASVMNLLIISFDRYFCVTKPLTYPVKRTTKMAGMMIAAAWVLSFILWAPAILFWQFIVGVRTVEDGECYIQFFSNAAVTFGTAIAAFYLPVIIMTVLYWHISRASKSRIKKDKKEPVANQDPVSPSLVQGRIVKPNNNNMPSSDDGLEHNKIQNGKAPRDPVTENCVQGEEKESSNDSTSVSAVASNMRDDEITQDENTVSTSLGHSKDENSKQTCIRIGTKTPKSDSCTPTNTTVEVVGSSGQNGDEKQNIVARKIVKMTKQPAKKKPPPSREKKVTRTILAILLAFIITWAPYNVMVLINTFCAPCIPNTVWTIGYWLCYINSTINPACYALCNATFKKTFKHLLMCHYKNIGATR
The data set is described as follows: M2 binding assay (human recombinant). The note with it: Examples 15-17; unit inferred; read-out: binding affinity for cholinergic (muscarinic) receptor M2.

The mark [5] stands for this setting: 10 mg/kg PO at CT-18, male Wistar rats.
Where [6] appears, read: Examples 15-17, read-out: Ki, H1 binding assay.
The mark [7] stands for this setting: 30 mg/kg and 10 mg/kg, intraperitoneal bolus at CT-18.
Where [8] appears, read: intraperitoneal at CT-18, 11f 10 or 30 mg/kg, 6f and 15f 30 mg/kg.

T1 sequence (P30546 whole entry): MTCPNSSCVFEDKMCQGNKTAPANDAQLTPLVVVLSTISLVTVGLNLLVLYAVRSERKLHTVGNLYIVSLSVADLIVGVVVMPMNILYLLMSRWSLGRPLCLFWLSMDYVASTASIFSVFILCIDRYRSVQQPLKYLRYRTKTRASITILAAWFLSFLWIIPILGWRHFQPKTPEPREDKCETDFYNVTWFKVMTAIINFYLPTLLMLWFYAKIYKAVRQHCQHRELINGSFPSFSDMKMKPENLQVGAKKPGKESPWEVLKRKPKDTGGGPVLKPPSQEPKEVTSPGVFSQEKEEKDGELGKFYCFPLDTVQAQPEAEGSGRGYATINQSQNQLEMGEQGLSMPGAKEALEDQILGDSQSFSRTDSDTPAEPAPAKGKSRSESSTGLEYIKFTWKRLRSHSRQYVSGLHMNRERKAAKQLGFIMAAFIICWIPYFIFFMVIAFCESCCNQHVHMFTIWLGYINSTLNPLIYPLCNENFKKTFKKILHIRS

In the case of `Cl.O=C(O)CCCN1CCC(OC(c2ccccc2)c2ccccc2)CC1` [Compound 53a], in the data set with male Wistar rats (30 mg/kg PO at CT-18), the “Average Bout-Length” value is 4.3 min, the “Duration” value amounted to 4 h, the “Maximum Bout Length” value came to 9.1 min and the “NREM Accum.” value came out at 17.4 min. Also, in the data set with male Wistar rats (30 mg/kg PO at CT-18), the “NREM Peak (%/hr)” value stood at 49.2 %/hr and the “Onset” value was found to be 30 min.
As to `Cl.O=C(O)CCN1CCC(=C(c2ccccc2)c2ccccc2)CC1` [Compound U1], the “sleep continuity, as assessed by sleep bout length” value (“sleep continuity, as assessed” below) with male Wistar rats (setting [5]) was “increased sleep continuity”. Moreover, in the data set with male Wistar rats, the “total sleep time post-treatment” value is “significantly increased total sleep time”, the “body temperature adverse effects” value was “no evidence of causing disproportional locomotor inhibition or body temperature adverse effects” and the disproportional locomotor inhibition result was “no evidence of causing disproportional locomotor inhibition or body temperature adverse effects”. Besides, the “net longest sleep bout post treatment” value with male Wistar rats (adjusted using a baseline value at least 24 hours prior, functional criteria list) is reported as “greater than or equal to 3 minutes”. For the same compound, the average sleep bout result with male Wistar rats (at absolute peak, functional criteria list) was “greater than 5 minutes”. In addition, the “nonREM peak time value” in the data set with male Wistar rats (by the third hour after administration, functional criteria list) is “greater than 55 % nonREM sleep per hour”. Moreover, the “cumulative total increase in nonREM sleep” value in the data set with male Wistar rats (doses that produce maximum sleep consolidation, functional criteria list) is “not less than 20 minutes”. In addition, in the data set with male Wistar rats (functional criteria list), the REM sleep inhibition result is on record as “does not appreciably inhibit REM sleep”, the “locomotor activity inhibition relative to the normal effects of sleep” value is “does not disproportionately inhibit locomotor activity”, the longest sleep bout result is given as “greater than 13 minutes” and the rebound insomnia entry was “does not produce appreciable amounts of rebound insomnia”. For the same compound, the Ki in data set [1] (setting [6]) was under 500 nM.
For the compound `O=C(O)CN1CCC(C(c2ccccc2)c2ccccc2)CC1` [Compound 16a, [4-(Diphenylmethyl)piperidin-1-yl]ethanoic acid], in the data set with male Wistar rats (30 mg/kg PO at CT-18), the “Average Bout-Length” value was found to be 5.4 min, the “Duration” value was 5 h, the “Maximum Bout Length” value was 11.8 min and the “NREM Accum.” value turned out to be 20.7 min. For the same compound, in the data set with male Wistar rats (30 mg/kg PO at CT-18), the “NREM Peak (%/hr)” value amounted to 57.9 %/hr and the “Onset” value is 180 min. For the same compound, in data set [2] (Table 7, human recombinant, read-out: Receptor Binding Data (Ki nM) M1), the Ki was over 10000 nM. This compound also returned a Ki in data set [1] (Receptor Binding Data (Ki nM) H1, Table 7) of 43.9 nM. For the same compound, the Ki in data set [3] was over 10 µM.
As to `CC(C)COC(=O)CCN1CCC(=C(c2ccccc2)c2ccccc2)CC1` [Compound 11e, Isobutyl 3-[4-(diphenylmethylidene)piperidin-1-yl]propanoate], in the data set with male Wistar rats (30 mg/kg PO at CT-18), the “Average Bout-Length” value came out at 8.3 min, the “Duration” value stood at 6 h, the “Maximum Bout Length” value was 19.1 min and the “NREM Accum.” value was determined as 49.6 min. Moreover, in the data set with male Wistar rats (30 mg/kg PO at CT-18), the “NREM Peak (%/hr)” value stood at 59.6 %/hr and the “Onset” value worked out at 80 min. Besides, the IC50 in data set [1] came to 0.718 µM.
On to `O=C(O)CCN1CCC(OC(c2ccccc2)c2ccccc2)CC1` [Compound 6a, 3-[4-(diphenylmethoxy)piperidin-1-yl]propanoic acid], for which, in the data set on male Wistar rats (30 mg/kg PO at CT-18), the “Average Bout-Length” value worked out at 7.0 min, the “Duration” value stood at 5 h, the “Maximum Bout Length” value amounted to 12.8 min and the “NREM Accum.” value amounted to 26.5 min. Besides, in the data set with male Wistar rats (30 mg/kg PO at CT-18), the “NREM Peak (%/hr)” value is 56.4 %/hr and the “Onset” value came to 65 min.
Turning to `CC(C)(CN1CCC(=C2c3ccccc3COc3ccccc32)CC1)C(=O)O` [Compound 74a], in the data set on male Wistar rats (30 mg/kg PO at CT-18), the “Average Bout-Length” value was determined as 9.9 min, the “Duration” value is 5 to 6 h, the “Maximum Bout Length” value amounted to 22.3 min and the “NREM Accum.” value is 43.4 min. Besides, in the data set on male Wistar rats (30 mg/kg PO at CT-18), the “NREM Peak (%/hr)” value is on record as 64.4 %/hr and the “Onset” value is 70 to 80 min.
In the case of `O=C(O)CCCN1CCC(=C2c3ccccc3COc3ccccc32)CC1` [Compound 73a], in the data set with male Wistar rats (30 mg/kg PO at CT-18), the “Average Bout-Length” value stood at 14.5 min, the “Duration (hrs)” value is 5-6+ hrs, the “Maximum Bout Length” value came to 27.6 min and the “NREM Accum.” value came out at 47.3 min. For the same compound, in the data set with male Wistar rats (30 mg/kg PO at CT-18), the “NREM Peak (%/hr)” value is 62.2 %/hr and the “Onset” value came to 45 min.
`O=C(CCN1CCC(=C(c2ccccc2)c2ccccc2)CC1)OC1CCCC1` [Compound 11f, Cyclopentyl 3-[4-(diphenylmethylidene)piperidin-1-yl]propanoate]: the “cumulative effect on total sleep time (TST) during the initial 5 hours post-treatment, relative to baseline” value in the data set with male Wistar rats (30 mg/kg IP versus Zolpidem 10 mg/kg) is given as “induced more TST than Zolpidem”. Further, in the data set with male Wistar rats (setting [7]), the “sleep continuity, as assessed” value is recorded as “increased sleep continuity”; the “time post-treatment over which total sleep time was increased” value was found to be 3 h; the total sleep time result is on record as “significantly increased total sleep time”. Moreover, in the data set with male Wistar rats (setting [8]), the REM sleep inhibition result is given as “did not, however, produce REM sleep inhibition or rebound insomnia” and the rebound insomnia entry is given as “did not, however, produce REM sleep inhibition or rebound insomnia”. In data set [1], the half-maximal inhibitory concentration (IC50) was 1.07 µM.
For `CC(C)(CCN1CCC(=C2c3ccccc3COc3ccccc32)CC1)C(=O)O` [Compound 75a], in the data set on male Wistar rats (30 mg/kg PO at CT-18), the “Average Bout-Length” value worked out at 6.8 min, the “Duration” value was found to be 4 h, the “Maximum Bout Length” value was determined as 13.6 min and the “NREM Accum.” value came to 33.9 min. Also, in the data set with male Wistar rats (30 mg/kg PO at CT-18), the “NREM Peak (%/hr)” value amounted to 58.8 %/hr and the “Onset” value fell in the range of 70 to 85 min. Moreover, in the data set on male Wistar rats (45 mg/kg PO at CT-18), the “Average Bout-Length” value is 10.8 min, the “Duration” value was determined as 5 h, the “Maximum Bout Length” value was 19.4 min and the “NREM Accum.” value was 33.9 min. Besides, in the data set with male Wistar rats (45 mg/kg PO at CT-18), the “NREM Peak (%/hr)” value was 58.2 %/hr and the “Onset” value fell in the range of 70 to 85 min.
In the case of `CC(C)(CCN1CCN(C2=Nc3ccccc3Oc3ccc(Cl)cc32)CC1)C(=O)O` [Compound SS1], the “sleep continuity, as assessed” value with male Wistar rats (setting [5]) is listed as “increased sleep continuity”. Also, the “total sleep time post-treatment” value in the data set on male Wistar rats is listed as “significantly increased total sleep time”. In addition, the “body temperature adverse effects” value in the data set with male Wistar rats is given as “no evidence of causing disproportional locomotor inhibition or body temperature adverse effects”. Further, the disproportional locomotor inhibition result in the data set with male Wistar rats was “no evidence of causing disproportional locomotor inhibition or body temperature adverse effects”. The Ki is over 10000 nM in data set [2] (Examples 15-17, unit inferred, read-out: binding affinity for cholinergic (muscarinic) receptor M1); over 10 µM in data set [4]; 23.9 nM in data set [1] (setting [6]); over 10 µM in data set [3] (Examples 15-17, unit inferred, read-out: binding affinity for cholinergic (muscarinic) receptor M3).
On to `O=C(O)CCN1CCC(=C(c2ccccc2)c2ccccc2)CC1` [Compound 11a], for which, in the data set with male Wistar rats (30 mg/kg PO at CT-18), the “Average Bout-Length” value came out at 11.2 min, the “Duration” value came out at 6 h, the “Maximum Bout Length” value worked out at 18.7 min and the “NREM Accum.” value was 41.2 min. In the data set with male Wistar rats (30 mg/kg PO at CT-18), the “NREM Peak (%/hr)” value is reported as 67.3 %/hr and the “Onset” value stood at 85 min. The IC50 in data set [1] was 0.308 µM.
Regarding `CC(C)OC(=O)CCN1CCC(=C(c2ccccc2)c2ccccc2)CC1` [Compound 11d, Isopropyl 3-[4-(diphenylmethylidene)piperidin-1-yl]propanoate], in the data set with male Wistar rats (30 mg/kg PO at CT-18), the “Average Bout-Length” value amounted to 11.0 min, the “Duration” value stood at 6 h, the “Maximum Bout Length” value worked out at 20.1 min and the “NREM Accum.” value is 55.5 min. In the data set on male Wistar rats (30 mg/kg PO at CT-18), the “NREM Peak (%/hr)” value is listed as 58.5 %/hr and the “Onset” value worked out at 135 min. For the same compound, in data set [1], the IC50 came out at 0.378 µM.
